# pKi: −log10 of the molar value. Read-outs that look alike come from different tables or passages of the source. Starred links: 1 amine or outer side, 2 acyl side, 3 side chain; linkers in the order of their positions; H or OH if unused. Non-standard residues stand in square brackets, D forms with d. Residues, ends and D or L forms follow the SMILES beside them. X1 = N=C(N)NCCC[C@H](N[*:1])C(=O)c1nc2ccc(C(=O)[*:2])cc2s1
# Key:
# Format in all cases: biochemical
# Factor Xa = Factor Xa (Homo sapiens, UniProt P00742); experiment: Chromogenic kinetic enzyme assay of Factor Xa
# Procedure: (§1) Inhibitors (11-pt serial dilutions, 0-20 μM final concentration) were serially diluted in DMSO (2% DMSO final concentration) and then mixed with recombinant thrombin (0.15 nM final concentration) or Factor Xa (0.35 nM final concentration) in TNC buffer (25 mM Tris, 150 mM NaCl, 5 mM CaCl2, 0.01% TRITON X-100, pH 8) using clear 384 well plates. […] Changes in absorbance at 405 nm were measured over time in a Biotek Synergy 2 plate (Winnoski, Vt.). Using GraphPad Prism version 6.04 software program, (GraphPad Software, San Diego, Calif., www.graphpad.com), a four parameter curve fit was used to determine the inhibitor IC50s from a plot of the mean reaction velocity versus the inhibitor concentration. Ki values were calculated from the IC50 values using the Cheng and Prusoff equation (Ki=IC50/(1+[S]/Km).
# matriptase = target: T1, matriptase (Homo sapiens, UniProt Q9Y5Y6); experiment: Fluorescent kinetic enzyme inhibitor assay of matriptase
# T1 construct: Charles Craik, UCSF (obtained from another laboratory)
# T1 sequence (Q9Y5Y6 615-855 limits assumed): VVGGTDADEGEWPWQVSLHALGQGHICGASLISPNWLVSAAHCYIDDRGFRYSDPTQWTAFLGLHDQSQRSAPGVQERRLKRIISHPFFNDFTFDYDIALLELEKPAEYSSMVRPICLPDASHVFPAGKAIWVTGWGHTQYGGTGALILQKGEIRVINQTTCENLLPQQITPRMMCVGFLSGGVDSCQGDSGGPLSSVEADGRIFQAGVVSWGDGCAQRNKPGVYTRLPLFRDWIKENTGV
# In short: (§2)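 Fluorescence (ex 380/em 460 nm) followed kinetically at room temperature; IC50 from four-parameter fit of mean velocity versus concentration, averaged over three experiments.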
# HGFA = target: T2, HGFA (Homo sapiens, UniProt Q04756); experiment: Fluorescent kinetic enzyme inhibitor assay of HGFA; conditions: read-out: HGFA Ki
# T2 construct: His6 tag (N); seven amino acid spacer and seven amino acid TEV cleavage site (N); Honey Bee melittin signal peptide (N); made in house; host or cells: High 5 insect cells (baculovirus; virus raised in Sf9)
# T2 sequence (Q04756 373-655): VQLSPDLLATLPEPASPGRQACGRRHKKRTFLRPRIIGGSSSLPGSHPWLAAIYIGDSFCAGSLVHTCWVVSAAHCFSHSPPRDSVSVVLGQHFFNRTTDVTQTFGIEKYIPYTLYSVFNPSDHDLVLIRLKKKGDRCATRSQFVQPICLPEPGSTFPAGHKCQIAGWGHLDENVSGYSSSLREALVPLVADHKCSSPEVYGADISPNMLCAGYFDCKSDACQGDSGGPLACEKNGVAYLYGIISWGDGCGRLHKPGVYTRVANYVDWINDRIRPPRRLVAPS
# In short: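 Recombinant His-tagged HGFA residues 373-655 from insect cells, with substrate at Km. Inhibitors in 11-point dilutions, 0-20 μM final, 2% DMSO, fluorescence (ex 380/em 460 nm) followed over time at room temperature. IC50 from four-parameter fit of mean velocity, average of three experiments.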
# thrombin = thrombin (Homo sapiens, UniProt P00734); experiment: Chromogenic kinetic enzyme assay of thrombin
# Procedure: as §1
# hepsin = target: T3, hepsin (Homo sapiens, UniProt P05981); experiment: Fluorescent kinetic enzyme inhibitor assay of hepsin
# T3 construct: purchased R&D Systems 4776-SE-010
# In short: as §2
# [1] = Table 6.2, headed Fluorogenic Assay, read-out: Factor Xa Ki
# [2] = Table 6.2, headed Fluorogenic Assay, read-out: Thrombin Ki
# [3] = Table 6.1, Fluorogenic Assay, read-out: Hepsin Ki
# Factor Xa, sequence (P00742 235-488 limits assumed): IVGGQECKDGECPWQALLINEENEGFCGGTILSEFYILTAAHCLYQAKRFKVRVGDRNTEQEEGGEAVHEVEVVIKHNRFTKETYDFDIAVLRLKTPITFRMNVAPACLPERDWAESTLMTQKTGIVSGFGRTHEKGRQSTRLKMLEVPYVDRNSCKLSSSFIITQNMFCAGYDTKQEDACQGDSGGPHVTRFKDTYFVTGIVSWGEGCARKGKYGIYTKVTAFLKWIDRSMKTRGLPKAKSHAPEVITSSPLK
# Factor Xa, sequence (P00742 41-179 partner limits assumed): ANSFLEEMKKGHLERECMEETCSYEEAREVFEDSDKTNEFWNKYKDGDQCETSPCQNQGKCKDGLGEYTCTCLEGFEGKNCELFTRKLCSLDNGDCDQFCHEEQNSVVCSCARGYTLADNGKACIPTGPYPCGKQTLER
# T3 sequence (P05981 163-417 limits assumed): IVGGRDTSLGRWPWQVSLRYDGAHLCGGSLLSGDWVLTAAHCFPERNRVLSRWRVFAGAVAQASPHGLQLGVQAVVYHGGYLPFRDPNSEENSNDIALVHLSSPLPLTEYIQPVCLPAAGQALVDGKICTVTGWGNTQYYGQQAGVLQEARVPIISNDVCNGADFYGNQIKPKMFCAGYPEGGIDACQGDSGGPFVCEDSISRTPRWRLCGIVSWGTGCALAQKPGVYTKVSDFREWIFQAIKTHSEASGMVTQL
# T3 sequence (P05981 45-162 partner limits assumed): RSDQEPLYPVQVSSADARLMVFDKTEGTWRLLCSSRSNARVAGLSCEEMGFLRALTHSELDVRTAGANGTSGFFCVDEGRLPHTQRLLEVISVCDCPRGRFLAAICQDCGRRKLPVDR
SMILES,pKi (Factor Xa; [1]),"pKi (HGFA; Table 6.1, Fluorogenic Assay)",pKi (thrombin; [2]),other results
"CC(=O)N[C@@H](CCCCN)C(=O)N[C@@H](CCC(N)=O)C(=O)N[C@@H](CC(C)C)C(=O)N[C@@H](CCCNC(=N)N)C(=O)c1nc2ccc(C(=O)N[C@H](C(N)=O)C(C)C)cc2s1 [Compound 7055, Ac-KQLR(SEQ ID NO: 1)-Kbt-Val—NH2] (Ac-KQL[X1]V-NH2)",7.18,7.92,5.49,pKi (matriptase): 8.15; pKi (HGFA): 7.89; pKi (hepsin; read-out: hepsin Ki): 9.52
"CC(=O)N[C@@H](Cc1c[nH]c2ccccc12)C(=O)N[C@@H](CC(C)C)C(=O)N[C@@H](Cc1ccccc1)C(=O)N[C@@H](CCCNC(=N)N)C(=O)c1nc2ccccc2s1 [Compound 7064, Ac-WLFR(SEQ ID NO: 20)-Kbt]",9.00,6.88,< 4.70,–
"CC(=O)N[C@@H](CCCCN)C(=O)N[C@@H](CCCNC(=N)N)C(=O)N[C@@H](CC(C)C)C(=O)N[C@@H](CCCNC(=N)N)C(=O)c1nc2ccc(C(=O)N[C@H](C(N)=O)C(C)C)cc2s1 [Compound 7115, Ac-KRLR(SEQ ID NO: 8)-Kbt-Val—NH2] (Ac-KRL[X1]V-NH2)",7.77,8.23,5.81,"pKi (matriptase; Table 6.1, Fluorogenic Assay): 8.13"
"CC(=O)N[C@@H](CO)C(=O)N[C@@H](CCCCN)C(=O)N[C@@H](CC(C)C)C(=O)N[C@@H](CCCNC(=N)N)C(=O)c1nc2ccc(C(=O)N[C@H](C(N)=O)C(C)C)cc2s1 [Compound 7116, Ac-SKLR(SEQ ID NO: 10)-Kbt-Val— NH2] (Ac-SKL[X1]V-NH2)",–,7.89,–,pKi (Factor Xa): 6.41; pKi (thrombin): 5.35; pKi (hepsin; [3]): 9.72
"CC(=O)N[C@@H](CO)C(=O)N[C@@H](CCCCN)C(=O)N[C@@H](CC(C)C)C(=O)N[C@@H](CCCNC(=N)N)C(=O)c1nc2ccc(C(=O)O)cc2s1 [Compound 7118, Ac-SKLR(SEQ ID NO: 10)-Kbt-COOH]",5.90,6.88,< 5.70,–
"CC(=O)N[C@@H](CO)C(=O)N[C@@H](CCCCN)C(=O)N[C@@H](CC(C)C)C(=O)N[C@@H](CCCNC(=N)N)C(=O)c1nc2ccc(C(=O)N[C@@H](Cc3c[nH]c4ccccc34)C(N)=O)cc2s1 [Compound 7124, Ac-SKLR(SEQ ID NO: 10)-Kbt-Trp— NH2] (Ac-SKL[X1]W-NH2)",6.79,7.80,5.91,–
"CC(=O)N[C@@H](CO)C(=O)N[C@@H](CCCCN)C(=O)N[C@@H](CC(C)C)C(=O)N[C@@H](CCCNC(=N)N)C(=O)c1nc2ccc(C(=O)N[C@@H](Cc3ccccc3)C(N)=O)cc2s1 [Compound 7125, Ac-SKLR(SEQ ID NO: 10)-Kbt-Phe— NH2] (Ac-SKL[X1]F-NH2)",6.26,7.76,5.44,pKi (hepsin; [3]): 9.85

# The next lines start with results.
pKi (Factor Xa; [1]),"pKi (HGFA; Table 6.1, Fluorogenic Assay)",pKi (thrombin; [2]),SMILES,other results
6.66,7.50,5.46,"CC(=O)N[C@@H](CO)C(=O)N[C@@H](CCCCN)C(=O)N[C@@H](CC(C)C)C(=O)N[C@@H](CCCNC(=N)N)C(=O)c1nc2ccc(C(=O)Nc3ccncc3)cc2s1 [Compound 7126, Ac-SKLR(SEQ ID NO: 10)-Kbt-4-pyridinylamide]",pKi (hepsin; [3]): 9.85
6.72,8.04,5.61,"CC(=O)N[C@@H](CO)C(=O)N[C@@H](CCCCN)C(=O)N[C@@H](CC(C)C)C(=O)N[C@@H](CCCNC(=N)N)C(=O)c1nc2ccc(C(=O)NCc3ccccc3)cc2s1 [Compound 7139, Ac-SKLR(SEQ ID NO: 10)-Kbt- benzylamide]",–
6.35,8.11,5.53,"CC(=O)N[C@@H](CO)C(=O)N[C@@H](CCCCN)C(=O)N[C@@H](CC(C)C)C(=O)N[C@@H](CCCNC(=N)N)C(=O)c1nc2ccc(C(=O)NC3CCNCC3)cc2s1 [Compound 7140, Ac-SKLR(SEQ ID NO: 10)-Kbt-4-piperidinylamide]",–
7.69,8.22,5.71,"CC(=O)N[C@@H](CCCCN)C(=O)N[C@@H](CCCNC(=N)N)C(=O)N[C@@H](CC(C)C)C(=O)N[C@@H](CCCNC(=N)N)C(=O)c1nc2ccc(C(=O)NCc3cccc(C(=O)O)c3)cc2s1 [Compound 7165, Ac-KRLR(SEQ ID NO: 8)-Kbt-5-COOH]",–
6.27,6.98,6.34,"CC(C)C[C@H](NC(=O)[C@@H](N)Cc1c[nH]c2ccccc12)C(=O)N[C@@H](CCCNC(=N)N)C(=O)c1nc2ccccc2s1 [Compound 7170, H-WLR-kbt]",–
7.25,7.08,5.09,"CC(C)C[C@H](NC(=O)[C@@H](N)CCCNC(=N)N)C(=O)N[C@@H](CCCNC(=N)N)C(=O)c1nc2ccccc2s1 [Compound 7171, H-RLR-kbt]",–
7.74,7.90,6.26,"CC(C)C[C@H](NC(=O)[C@@H](N)CCCNC(=N)N)C(=O)N[C@@H](CCCNC(=N)N)C(=O)c1nc2ccc(C(=O)N[C@H](C(N)=O)C(C)C)cc2s1 [Compound 7180, H-RLR-kbt V amide]",–
6.80,7.13,7.39,"CC(C)C[C@H](NC(=O)[C@@H](N)Cc1c[nH]c2ccccc12)C(=O)N[C@@H](CCCNC(=N)N)C(=O)c1nc2ccc(C(=O)N[C@H](C(N)=O)C(C)C)cc2s1 [Compound 7181, H-WLR-kbt V amide]",–
6.80,7.09,6.99,"CC(C)C[C@H](NC(=O)[C@@H](N)CC(C)C)C(=O)N[C@@H](CCCNC(=N)N)C(=O)c1nc2ccc(C(=O)N[C@H](C(N)=O)C(C)C)cc2s1 [Compound 7182, H-LLR-kbt V amide]",–
6.39,6.35,6.00,"CC(C)C[C@H](NC(=O)OCC1c2ccccc2-c2ccccc21)C(=O)N[C@@H](CCCNC(=N)N)C(=O)c1nc2ccccc2s1 [Compound 7185-11, Fmoc-LR-kbt]",–
